Test results: patent US20190142971A1, “FORMULATION AND DELIVERY OF MODIFIED NUCLEOSIDE, NUCLEOTIDE, AND NUCLEIC ACID COMPOSITIONS” (ModernaTX, Inc., priority 2013, published 2019)

Key:
Balb-C mice = assay: Example 79: fibrin sealant (Tisseel) with luciferase mRNA SC in mice, total flux (Tables 119, 120); type: in vivo; details: subcutaneous
Protocol: The thrombin and fibrinogen components were loaded separately into a dual barreled syringe. […] The injection of fibrinogen and thrombin was done simultaneously using the dual-barreled syringe. The subcutaneous injection of luciferase was done 15 minutes after the fibrinogen/thrombin injection to allow the fibrin hydrogel to polymerize (Tisseel+Luciferase group). A control group of untreated mice were also evaluated. The mice were imaged at 5 hours and 24 hours. Twenty minutes prior to imaging, mice were injected intraperitoneally with a D-luciferin solution at 150 mg/kg. Animals were then anesthetized and images were acquired with an IVIS Lumina II imaging system (Perkin Elmer). Bioluminescence was measured as total flux (photons/second) of the entire mouse.

mice = assay: Example 39: Factor IX mmRNA IM in mice, serum Factor IX at 13 hours; type: in vivo; details: 2×100 ug/mouse IM
Protocol: Human Factor IX mmRNA (Gen1; fully modified 5-methycytosine and pseudouridine) formulated in formulation buffer was delivered to mice via intramuscular injection.
The mice were bled at 13 hours after the intramuscular injection to determine the concentration of human the polypeptide in serum in pg/mL.

Sprague-Dawley rats = assay: Example 71: toxicity study of luciferase mRNA in rats: weight, electrolytes, hematology, WBC, serum chemistry, liver proteins (Tables 104-110); type: in vivo; details: for Mean weight Gain / Weight Gain: 7 days after administration; for ALP / ALT / AST / Albumin / Basophils (BASO %) / Bicarbonate / CPK / Calcium / Chloride / Eosinophils (EOS %) / Globulin / HCT / HGB / Lymphocytes (LYM %) / MCH / MCV / Monocytes (MON %) / Neutrophil (NEU-SEG %) / Phosphorus / Potassium / RBC / Sodium / Total Protein / WBC / MCHC: after 7 days
Protocol: A control group were administered the formulation buffer (F. Buffer). After 7 days the rats were sacrificed.
The rats were weighed before the administration of mRNA and 7 days after administration. […] Each group analyzed consumed about the same amount of food over the course of the study.
After 7 days the rats were sacrificed and samples were taken to determine electrolytes. The calcium, bicarbonate, potassium, phosphorus, chloride and sodium levels in each group were analyzed.
After 7 days the rats were sacrificed and samples were taken to determine hematology levels. The red blood cell (RBC), hematocrit (HGT), mean corpuscular volume (MCV), hemoglobin (HGB), mean corpuscular hemoglobin (MCH) and mean corpuscular hemoglobin concentration (MCHC) was determined for each group.
After 7 days the rats were sacrificed and samples were taken to determine white blood cell count. Neutrophils (percent segmented neutrophils), monocytes, basophils, lymphocytes, eosinophil and white blood cell (WBC) was determined for each group.
After 7 days the rats were sacrificed and samples were taken to determine serum chemistry. The alkaline phosphatase (ALP), aspartate transaminase (AST), alanine transaminase (ALT) and creatine phosphokinase (CPK) was determined for each group.
After 7 days the rats were sacrificed and samples were taken to determine liver protein levels. The level of albumin, globulin and total protein was determined for each group.
Doses as high as 30 times the effective dose appear to be safe from this analysis.

C57BL/6 = assay: Example 115 (second): human EPO mRNA in mannitol multi-dose, serum EPO (Table 187); type: in vivo, mice; details: IM 2.5 mg/kg per dose
Protocol: Serum was collected from the mice 24 hours post the second, fourth, sixth and eighth doses.

Luciferase: luciferase mRNA, SEQ ID NO: 14, Cap1, fully modified with 5-methylcytosine and pseudouridine
Total Flux (Balb-C mice; 5 Hours): 9.94E+05 p/s
Total Flux (Balb-C mice; 24 Hours): 7.44E+05 p/s
Factor IX in serum (mice): less than 100 pg/mL
Mean weight Gain (Sprague-Dawley rats; 100 ug): 16.875 g
Weight Gain (Sprague-Dawley rats; 100 ug): 6.5%
ALP (Sprague-Dawley rats; 100 ug): 144.4 IU/L
ALT (Sprague-Dawley rats; 100 ug): 60.8 IU/L
AST (Sprague-Dawley rats; 100 ug): 198.3 IU/L
Albumin (Sprague-Dawley rats; 100 ug): 3.3 g/dL
Basophils (BASO %) (Sprague-Dawley rats; 100 ug): 0.4%
Bicarbonate (Sprague-Dawley rats; 100 ug): 19.9 mEg/L
CPK (Sprague-Dawley rats; 100 ug): 488.1 IU/L
Calcium (Sprague-Dawley rats; 100 ug): 9.8 mg/dL
Chloride (Sprague-Dawley rats; 100 ug): 101.0 mEg/L
Eosinophils (EOS %) (Sprague-Dawley rats; 100 ug): 1.3%
Globulin (Sprague-Dawley rats; 100 ug): 2.5 g/dL
HCT (Sprague-Dawley rats; 100 ug): 44.1%
HGB (Sprague-Dawley rats; 100 ug): 14.7 g/dL
Lymphocytes (LYM %) (Sprague-Dawley rats; 100 ug): 85.9%
MCH (Sprague-Dawley rats; 100 ug): 19.5 pg
MCV (Sprague-Dawley rats; 100 ug): 58.7 fL
Monocytes (MON %) (Sprague-Dawley rats; 100 ug): 2.0%
Neutrophil (NEU-SEG %) (Sprague-Dawley rats; 100 ug): 10.6%
Phosphorus (Sprague-Dawley rats; 100 ug): 8.3 mg/dL
Potassium (Sprague-Dawley rats; 100 ug): 4.7 mEg/L
RBC (Sprague-Dawley rats; 100 ug): 7.5 Million/uL
Sodium (Sprague-Dawley rats; 100 ug): 139.6 mEg/L
Total Protein (Sprague-Dawley rats; 100 ug): 5.8 g/dL
WBC (Sprague-Dawley rats; 100 ug): 14 Thous./uL
Mean weight Gain (Sprague-Dawley rats; 300 ug): 22.125 g
Weight Gain (Sprague-Dawley rats; 300 ug): 8.3%
ALP (Sprague-Dawley rats; 300 ug): 169.5 IU/L
ALT (Sprague-Dawley rats; 300 ug): 49.3 IU/L
AST (Sprague-Dawley rats; 300 ug): 200.3 IU/L
Albumin (Sprague-Dawley rats; 300 ug): 3.2 g/dL
Basophils (BASO %) (Sprague-Dawley rats; 300 ug): 0.4%
Bicarbonate (Sprague-Dawley rats; 300 ug): 23.3 mEg/L
CPK (Sprague-Dawley rats; 300 ug): 968.3 IU/L
Calcium (Sprague-Dawley rats; 300 ug): 9.8 mg/dL
Chloride (Sprague-Dawley rats; 300 ug): 100.5 mEg/L
Eosinophils (EOS %) (Sprague-Dawley rats; 300 ug): 1.0%
Globulin (Sprague-Dawley rats; 300 ug): 2.4 g/dL
HCT (Sprague-Dawley rats; 300 ug): 43.5%
HGB (Sprague-Dawley rats; 300 ug): 14.5 g/dL
Lymphocytes (LYM %) (Sprague-Dawley rats; 300 ug): 83.6%
MCH (Sprague-Dawley rats; 300 ug): 19.8 pg
MCHC (Sprague-Dawley rats; 300 ug): 33.3 g/dL
MCV (Sprague-Dawley rats; 300 ug): 59.6 fL
Monocytes (MON %) (Sprague-Dawley rats; 300 ug): 2.8%
Neutrophil (NEU-SEG %) (Sprague-Dawley rats; 300 ug): 12.0%
Phosphorus (Sprague-Dawley rats; 300 ug): 8.2 mg/dL
Potassium (Sprague-Dawley rats; 300 ug): 4.4 mEg/L
RBC (Sprague-Dawley rats; 300 ug): 7.3 Million/uL
Sodium (Sprague-Dawley rats; 300 ug): 139.6 mEg/L
Total Protein (Sprague-Dawley rats; 300 ug): 5.6 g/dL
WBC (Sprague-Dawley rats; 300 ug): 10.2 Thous./uL
Mean weight Gain (Sprague-Dawley rats; 1000 ug): 19 g
Weight Gain (Sprague-Dawley rats; 1000 ug): 6.95%
ALP (Sprague-Dawley rats; 1000 ug): 150.5 IU/L
ALT (Sprague-Dawley rats; 1000 ug): 51.5 IU/L
AST (Sprague-Dawley rats; 1000 ug): 189.8 IU/L
Albumin (Sprague-Dawley rats; 1000 ug): 3.2 g/dL
Bicarbonate (Sprague-Dawley rats; 1000 ug): 22.5 mEg/L
CPK (Sprague-Dawley rats; 1000 ug): 744 IU/L
Calcium (Sprague-Dawley rats; 1000 ug): 10.6 mg/dL
Chloride (Sprague-Dawley rats; 1000 ug): 101.0 mEg/L
Eosinophils (EOS %) (Sprague-Dawley rats; 1000 ug): 1.5%
Globulin (Sprague-Dawley rats; 1000 ug): 2.7 g/dL
HCT (Sprague-Dawley rats; 1000 ug): 42.5%
HGB (Sprague-Dawley rats; 1000 ug): 14.2 g/dL
Lymphocytes (LYM %) (Sprague-Dawley rats; 1000 ug): 83.0%
MCH (Sprague-Dawley rats; 1000 ug): 19.55 pg
MCHC (Sprague-Dawley rats; 1000 ug): 33.3 g/dL
MCV (Sprague-Dawley rats; 1000 ug): 58.8 fL
Monocytes (MON %) (Sprague-Dawley rats; 1000 ug): 2.3%
Neutrophil (NEU-SEG %) (Sprague-Dawley rats; 1000 ug): 12.8%
Phosphorus (Sprague-Dawley rats; 1000 ug): 9.1 mg/dL
Potassium (Sprague-Dawley rats; 1000 ug): 5.2 mEg/L
RBC (Sprague-Dawley rats; 1000 ug): 7.2 Million/uL
Sodium (Sprague-Dawley rats; 1000 ug): 138.8 mEg/L
Total Protein (Sprague-Dawley rats; 1000 ug): 5.9 g/dL
WBC (Sprague-Dawley rats; 1000 ug): 10.7 Thous./uL
Mean weight Gain (Sprague-Dawley rats; 3 × 1000 ug): 20.375 g
Weight Gain (Sprague-Dawley rats; 3 × 1000 ug): 7.7%
ALP (Sprague-Dawley rats; 3 × 1000 ug): 152.0 IU/L
ALT (Sprague-Dawley rats; 3 × 1000 ug): 45.9 IU/L
Albumin (Sprague-Dawley rats; 3 × 1000 ug): 3.4 g/dL
Basophils (BASO %) (Sprague-Dawley rats; 3 × 1000 ug): 0.1%
Bicarbonate (Sprague-Dawley rats; 3 × 1000 ug): 22.6 mEg/L
CPK (Sprague-Dawley rats; 3 × 1000 ug): 481.1 IU/L
Calcium (Sprague-Dawley rats; 3 × 1000 ug): 10.2 mg/dL
Chloride (Sprague-Dawley rats; 3 × 1000 ug): 100.4 mEg/L
Eosinophils (EOS %) (Sprague-Dawley rats; 3 × 1000 ug): 0.9%
Globulin (Sprague-Dawley rats; 3 × 1000 ug): 2.6 g/dL
HCT (Sprague-Dawley rats; 3 × 1000 ug): 43.5%
HGB (Sprague-Dawley rats; 3 × 1000 ug): 14.4 g/dL
Lymphocytes (LYM %) (Sprague-Dawley rats; 3 × 1000 ug): 85.5%
MCH (Sprague-Dawley rats; 3 × 1000 ug): 20.0 pg
MCHC (Sprague-Dawley rats; 3 × 1000 ug): 33.1 g/dL
MCV (Sprague-Dawley rats; 3 × 1000 ug): 60.6 fL
Monocytes (MON %) (Sprague-Dawley rats; 3 × 1000 ug): 2.0%
Neutrophil (NEU-SEG %) (Sprague-Dawley rats; 3 × 1000 ug): 11.6%
Phosphorus (Sprague-Dawley rats; 3 × 1000 ug): 8.11 mg/dL
Potassium (Sprague-Dawley rats; 3 × 1000 ug): 4.6 mEg/L
RBC (Sprague-Dawley rats; 3 × 1000 ug): 7.2 Million/uL
Sodium (Sprague-Dawley rats; 3 × 1000 ug): 138.8 mEg/L
Total Protein (Sprague-Dawley rats; 3 × 1000 ug): 6.0 g/dL
WBC (Sprague-Dawley rats; 3 × 1000 ug): 10.9 Thous./uL
adverse effects of high doses (Sprague-Dawley rats; 7 days): do not result in adverse effects
blood count and clotting factors (Sprague-Dawley rats; 7 days): no change in blood count or blood clotting factors
electrolytes (Sprague-Dawley rats; 7 days): no change in electrolytes
liver enzyme and liver protein production (Sprague-Dawley rats; 7 days): no change seen in liver enzyme or liver protein production
weight gain and behaviour (Sprague-Dawley rats; 7 days): All animals continued to gain weight and behave normally
white blood cells (Sprague-Dawley rats; 7 days): no increase in white blood cells
dose that appears to be safe (Sprague-Dawley rats; rat, in vivo): 30 times the effective dose
histopathology at the site of injection (Sprague-Dawley rats; rat, in vivo): only minimal inflammation at the site of injection

B1: EPO: modified mRNA encoding human erythropoietin, SEQ ID NO: 7, Cap1, fully modified with 5-methylcytosine and pseudouridine; LNP NPA-060-1 in Examples 17-22 (nucleic acid)
chain: GGGAAAUAAGAGAGAAAAGAAGAGUAAGAAGAAAUAUAAGAGCCACCAUGGGAGUGCACGAGUGUCCCGCGUGGUUGUGGUUGCUGCUGUCGCUCUUGAGCCUCCCACUGGGACUGCCUGUGCUGGGGGCACCACCCAGAUUGAUCUGCGACUCACGGGUACUUGAGAGGUACCUUCUUGAAGCCAAAGAAGCCGAAAACAUCACAACCGGAUGCGCCGAGCACUGCUCCCUCAAUGAGAACAUUACUGUACCGGAUACAAAGGUCAAUUUCUAUGCAUGGAAGAGAAUGGAAGUAGGACAGCAGGCCGUCGAAGUGUGGCAGGGGCUCGCGCUUUUGUCGGAGGCGGUGUUGCGGGGUCAGGCCCUCCUCGUCAACUCAUCACAGCCGUGGGAGCCCCUCCAACUUCAUGUCGAUAAAGCGGUGUCGGGGCUCCGCAGCUUGACGACGUUGCUUCGGGCUCUGGGCGCACAAAAGGAGGCUAUUUCGCCGCCUGACGCGGCCUCCGCGGCACCCCUCCGAACGAUCACCGCGGACACGUUUAGGAAGCUUUUUAGAGUGUACAGCAAUUUCCUCCGCGGAAAGCUGAAAUUGUAUACUGGUGAAGCGUGUAGGACAGGGGAUCGCUGAUAAGCUGCCUUCUGCGGGGCUUGCCUUCUGGCCAUGCCCUUCUUCUCUCCCUUGCACCUGUACCUCUUGGUCUUUGAAUAAAGCCUGAGUAGGAAG
modifications: Cap1, 5-methylcytosine, pseudouridine
Eighth Dose EPO (C57BL/6; serum 24 hours post eighth dose): 7.9 pg/mL
Fourth Dose EPO (C57BL/6; serum 24 hours post fourth dose): 44.3 pg/mL
Second Dose EPO (C57BL/6; serum 24 hours post second dose): 43.5 pg/mL
Sixth Dose EPO (C57BL/6; serum 24 hours post sixth dose): 46.3 pg/mL
